In patent US8557800B2, “Sphingosine kinase inhibitors” (Apogee Biotechnology Corporation, priority 2005, dated 2013):
“And” between values parts separate entries of the source, which are not always exact repeats. Equal values may be shown once. Read-outs that look alike come from different tables or passages of the source.

Tests used:
recombinant human SK [1] = assay: Inhibition of recombinant human SK, LC/MS/MS assay; format: biochemical; details: 6 μg/ml compound
Method in brief: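 Enzyme incubated with unlabeled sphingosine and ATP (1 mM, as in the radiometric format) for 30 min, then stopped and extracted with acetonitrile. S1P quantified by C8 reverse-phase HPLC–MS/MS against C17 sphingosine and C17 S1P internal standards using calibration curves.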

[2] = system: MCF-10A non-transformed human breast epithelial cells; assay: Cytotoxicity, SRB binding assay; format: cell-based; details: inhibition of cell proliferation, 48 h, read-out: MCF-10A IC50
Method in brief: (§1)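 Cells exposed to varying compound doses for 48 h, then survival measured by sulforhodamine B staining. IC50 is the concentration giving 50% proliferation inhibition, in μM, as mean±sd of replicate trials.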

[3] = system: MCF-7 human breast adenocarcinoma cells; assay: Cytotoxicity, SRB binding assay; format: cell-based; details: MCF7, inhibition of cell proliferation, 48 h, read-out: MCF-7 IC50
Method in brief: as §1

1025LU (melanoma) = assay: Human tumor cell line panel, sulforhodamine B; format: cell-based; details: 48 hours, mean ± sd
A-498 (kidney) = assay: Human tumor cell line panel, sulforhodamine B; format: cell-based; details: A498, 48 hours, mean ± sd
Caco-2 (colon) = assay: Human tumor cell line panel, sulforhodamine B; format: cell-based; details: 48 hours, mean ± sd
DU145 (prostate) = assay: Human tumor cell line panel, sulforhodamine B; format: cell-based; details: DU-145, 48 hours, mean ± sd
Hep-G2 (liver) = assay: Human tumor cell line panel, sulforhodamine B; format: cell-based; details: HepG2, 48 hours, mean ± sd
HT-29 (colon) = assay: Human tumor cell line panel, sulforhodamine B; format: cell-based; details: 48 hours, mean ± sd
MCF-7 (breast, ER+) = assay: Human tumor cell line panel, sulforhodamine B; format: cell-based; details: MCF7, 48 hours, mean ± sd
MDA-MB-231 (breast, ER−) = assay: Human tumor cell line panel, sulforhodamine B; format: cell-based; details: 48 hours, mean ± sd
Panc-1 (pancreas) = assay: Human tumor cell line panel, sulforhodamine B; format: cell-based; details: 48 hours, mean ± sd
SK-OV-3 (ovary) = assay: Human tumor cell line panel, sulforhodamine B; format: cell-based; details: 48 hours, mean ± sd
T24 (bladder) = assay: Human tumor cell line panel, sulforhodamine B; format: cell-based; details: 48 hours, mean ± sd
[4] = Oral pharmacokinetics in mice (PEG400); format: in vivo; details: mouse, blood, 100 mg/kg oral gavage in PEG400, female Swiss-Webster mice
Description: Oral pharmacokinetic studies were performed on Compounds 62 and 57. Each compound was dissolved in PEG400 and administered to female Swiss-Webster mice at a dose of 100 mg/kg by oral gavage. Mice were anesthetized and blood was removed via cardiac puncture at 5 minutes, 30 minutes, 1, 2, and 8 hours. Concentrations of the test compounds were determined using liquid-liquid extraction, appropriate internal standards and reverse phase HPLC with UV detection. Control blood samples were run to identify compound-specific peaks. Pharmacokinetic parameters were calculated using the WINNONLIN analysis software package (Pharsight). Non-compartmental and compartmental models were tested, with the results shown in Table 7 derived from the best fit equations.

[5] = system: mouse JC mammary adenocarcimona cell line growing subcutaneously in Balb/c mice
Description: The antitumor activity of the representative SK inhibitors were evaluated using a syngeneic tumor model that uses the mouse JC mammary adenocarcimona cell line growing subcutaneously in immunocompetent Balb/c mice (Lee et al., 2003, Oncol Res 14: 49).
In FIG. 1, Balb/c mice, 6-8 weeks old, were injected subcutaneously with 10^6 JC cells suspended in phosphate-buffered saline. The SK inhibitors Compounds 62 and 57 were dissolved in PEG400 and administered to mice every-other day at a dose of 100 mg/kg. Body weights and tumor volumes were monitored daily. In FIG. 1, tumor growth is expressed as the tumor volume relative to day 1 for each animal.

physchem = details: aqueous with cosolvent or surfactant or cyclodextrin
recombinant human SK [6] = assay: Recombinant human SK assay with [3H]sphingosine; format: biochemical; details: positive control
Description: An assay for identifying inhibitors of recombinant human SK has been established (French et al., 2003, Cancer Res 63: 5962). cDNA for human SK was subcloned into a pGEX bacterial expression vector, which results in expression of the enzyme as a fusion protein with glutathione-S-transferase, and the fusion protein is then purified on a column of immobilized glutathione. SK activity is measured by incubation of the recombinant SK with [^3H]sphingosine and 1 mM ATP under defined conditions, followed by extraction of the assay mixture with chloroform:methanol under basic conditions. […] Radioactivity in aliquots of the aqueous phase is then quantified as a measure of [^3H]S1P formation. There is a low background level of partitioning of [^3H]sphingosine into the aqueous phase, and addition of the recombinant SK greatly increases the formation of [^3H]S1P.

CN1CCCC1CCNC(=O)C12CC3CC(C1)CC(c1ccc(Cl)cc1)(C3)C2 (centres unmarked) [Compound 57, 3-(4-Chloro-phenyl)-adamantane-1-carboxylic acid [2-(1-methyl-pyrrolidin-2-yl)-ethyl]-amide]
Recombinant SK (% inhibition) (recombinant human SK [1]): 30% | IC50 [2]: 8 µM | IC50 [3]: 6 µM | IC50 (1025LU (melanoma)): 7.2 ± 0.8 µM | IC50 (A-498 (kidney)): 8 ± 3.5 µM | IC50 (Caco-2 (colon)): 3.2 ± 2 µM | IC50 (DU145 (prostate)): 8.7 ± 3.3 µM | IC50 (Hep-G2 (liver)): 5 ± 1.8 µM | IC50 (HT-29 (colon)): 9.6 ± 4 µM | IC50 (MCF-7 (breast, ER+)): 12.1 ± 3.1 µM | IC50 (MDA-MB-231 (breast, ER−)): 12.5 ± 2.5 µM | IC50 (Panc-1 (pancreas)): 14.1 ± 6.3 µM | IC50 (SK-OV-3 (ovary)): 9.2 ± 2.8 µM | IC50 (T24 (bladder)): 12.7 ± 2.8 µM | Cmax [4]: 3.8 µM | Tmax [4]: 2 h | half-life [4]: 19.3 h | AUC(0-inf) ([4]; read-out: AUC0→∞ (μM * h)): 111 µM·h | AUC(0-inf) ([4]; read-out: AUC0→∞ (μg * h/mL)): 45000 ng·h/mL | inhibition of tumor growth relative to controls ([5]; 100 mg/kg oral every-other day in PEG400): 78% | In vivo activity ([5]; JC tumor model, intraperitoneal (ip) or oral (po) administration): active - po | solubility (physchem): ≥ 15000 µg/mL and 30000 µM to 40000 µM

CCCCCCCCCCCCC/C=C/[C@@H](O)[C@H](CO)N(C)C [DMS, D-erythro-N,N-dimethylsphingosine]
concentration that completely inhibits SK activity (recombinant human SK [6]): above 25 μM
